This passage reports IC50 results from patent US20110028509A1, “Sulfonamides” (MERCK SERONO SA, priority 2008, published 2011).

Holding throughout (assay type): cell-based
In assay [1] the target is T1, CXCR3 (Homo sapiens, UniProt P49682).
T1 sequence (P49682 1-368): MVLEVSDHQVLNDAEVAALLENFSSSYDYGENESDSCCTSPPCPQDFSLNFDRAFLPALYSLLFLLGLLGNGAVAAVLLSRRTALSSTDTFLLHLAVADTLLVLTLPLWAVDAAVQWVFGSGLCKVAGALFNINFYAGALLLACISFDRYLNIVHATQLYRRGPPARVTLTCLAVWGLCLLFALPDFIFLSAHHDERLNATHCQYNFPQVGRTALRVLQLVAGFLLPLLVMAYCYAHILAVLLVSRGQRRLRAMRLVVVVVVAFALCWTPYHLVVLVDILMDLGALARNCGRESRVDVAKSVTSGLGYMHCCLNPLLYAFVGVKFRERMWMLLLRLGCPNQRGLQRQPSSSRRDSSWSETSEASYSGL
The assay can be described thus: Chemotaxis assay IP10, L1.2 recombinant cells expressing hCXCR3. The conditions noted are these: L1.2 hCXCR3 cells, IP10 around 0.3 nM, 4 hours. How it is done:
Human CXCR3 cDNA was amplified by PCR from a human cells cDNA library (Clontech) and subcloned into pcDNA3.1 (Invitrogen). Murine pre-B L1.2 cells were transfected with hCXCR3-pcDNA3.1 and were grown at 37° C., 5% CO2 in RPMI 1640 medium (Invitrogen, USA) supplemented with 5% heat inactivated fetal calf serum (Cancerra, Australia), 2 mM glutamine (Invitrogen), 50 units ml−1 penicillin, 50 μml−1 streptomycin. Stable transfectant clonal populations were selected using 800 μg/ml geneticin.
L1.2 recombinant cells expressing the receptor hCXCR3 were maintained in culture in RPMI 1640 (invitrogen), 5% Foetal Bovine Serum (invitrogen), 2 mM glutamine(invitrogen), 50 u/ml penicillin/streptomycin (invitrogen), at 37° C.-5% CO2—in an H2O saturated incubator. In order to stimulate the expression of the receptor, cells were incubated overnight with 5 mM butyric acid (Sigma)
This mix of cells/compounds was then incubated at 37° C.-5% CO2—in an H2O saturated incubator during 30 minutes. Cells were then dispensed as a drop on each corresponding wells of the chemotaxis system. Cell migration was then induced at 37° C.-5% CO2—in an H2O incubator during 4 hours. Filters were then removed and cells that had migrated were transferred in a black plate (Costar). The plates were stored overnight at −80° C. Cell migration ratio was calculated using the cyquant dye (Molecular Probes-C7026).

In assay [2] the target is T1, CXCR3. The assay can be described thus: Chemotaxis assay ITAC (CXCL11), L1.2-CXCR3 cells. Also on record: expressed in transfected cells. The conditions noted are these: 1 nM CXCL11 (I-TAC), 4 hours. The gist of the method: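 Murine pre-B L1.2 cells stably expressing human CXCR3, pretreated 24 h with 5 mM butyric acid, preincubated with compound 30 min at 37 °C in 1% DMSO. Migration toward 1 nM CXCL11 (also with compound) through 8 μm filters for 4 h at 37 °C; migrated cells counted with CyQuant GR dye.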

Assay [3] has as its target T1, CXCR3. In words: CXCR3 Ca2+ mobilization (FLIPR), stable hCXCR3-CHO cell line, I-TAC stimulated. The arrangement: host or cells: CHO cells stably expressing hCXCR3. The conditions noted are these: hCXCR3-CHO cells, I-TAC 100 nM stimulated Ca2+ response; read-out: Ca-ITAC. The procedure, abridged:
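CHO cells stably expressing hCXCR3, grown 18 hours after plating, loaded with calcium indicator dye 60 minutes; compounds equilibrated 20 minutes at room temperature. Fluorescence change evoked by 100 nM I-TAC read on FLIPR; activity expressed as percent of I-TAC response without compound (100%).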

On to `N#Cc1ccc(S(=O)(=O)N(Cc2ccc(-c3nnn[nH]3)cc2)Cc2ccccc2F)cc1` [Example 83, 4-cyano-N-(2-fluorobenzyl)-N-[4-(2H-tetrazol-5-yl)benzyl]benzenesulfonamide], for which the IC50 on CXCR3 [1] is 0.236 µM; at CXCR3 [2], 1040 nM; at CXCR3 [3], 10 nM.
Take `N#Cc1ccc(S(=O)(=O)N(Cc2ccc(NC(=O)C3(c4ccccc4)CC3)cc2)Cc2ccccn2)cc1` [Example 163]: the IC50 on CXCR3 [1] worked out at 0.02 µM; against CXCR3 [2] it was 120 nM; on CXCR3 [3], 20 nM.
The matching figures for `CCOc1ccc(S(=O)(=O)N(Cc2ccc(C(=O)NCC(O)c3ccccc3)cc2)Cc2ccccn2)cc1` (centres unmarked) [Example 84]: 0.01 µM, 20 nM and 20 nM.
The matching figures for `O=C(O)c1ccc(CN(Cc2ccccc2F)S(=O)(=O)c2ccc(Cl)cc2)cc1F` [Example 65, 4-{[(4-Chloro-benzenesulfonyl)-(2-fluoro-benzyl)-amino]-methyl}-2-fluorobenzoic acid]: 0.513 µM, 2300 nM and 1010 nM.
Consider `O=C(Nc1ccc(CN(Cc2ccccn2)S(=O)(=O)c2ccc(Cl)cc2)cc1)C1(c2ccccc2)CC1` [Example 162, 1-Phenyl-cyclopropanecarboxylic acid (4-{[(4-chloro-benzenesulfonyl)-pyridin-2-ylmethyl-amino]-methyl}-phenyl)-amide], for which the IC50 came to 0.07 µM at CXCR3 [1], 170 nM on CXCR3 [2] and 170 nM at CXCR3 [3].
In the case of `O=S(=O)(c1ccc(Cl)cc1)N(Cc1ccc(-c2nnn[nH]2)c(F)c1)Cc1ccccn1` [Example 56, 4-chloro-N-[3-fluoro-4-(1H-tetrazol-5-yl)benzyl]-N-(pyridin-2 ylmethyl)benzene sulfonamide], the IC50 on CXCR3 [1] was determined as 1.16 µM; at CXCR3 [3], 5300 nM.
In the case of `CC(C)(C)c1nc(CN(Cc2ccc(-c3nnn[nH]3)cc2)S(=O)(=O)c2ccc(Cl)cc2)no1` [Example 69, 4-chloro-N-(5-tert-butyl-1,2,4-oxadiazol-3-ylmethyl)-N-[4-(2H-tetrazol-5yl)benzyl]benzene sulfonamide], the IC50 on CXCR3 [1] was determined as 0.254 µM; against CXCR3 [2], 560 nM; at CXCR3 [3] it was 56 nM.
Consider `N#Cc1ccc(S(=O)(=O)N(Cc2ccc(C(=O)NCC(O)c3ccccc3)cc2)Cc2ccccn2)cc1` (centres unmarked) [Example 102], for which the IC50 at CXCR3 [1] worked out at 0.01 µM; at CXCR3 [2], 20 nM; at CXCR3 [3], 20 nM.
As to `CCOc1ccc(S(=O)(=O)N(Cc2ccc(-c3nnn[nH]3)c(F)c2)Cc2ccccn2)cc1` [Example 80], the IC50 on CXCR3 [1] is 0.158 µM; on CXCR3 [2], 909 nM; on CXCR3 [3], 55 nM.
On to `O=C(NCC1CC1)c1ccc(CN(Cc2ccccc2)S(=O)(=O)c2ccc(Cl)nc2)cc1` [Example 37, 4-{[benzyl({[2-chloropyridine)l]sulfonyl)amino]methyl}-N(cyclopropylmethyl)benzamide], for which the IC50 at CXCR3 [1] stood at 0.328 µM; at CXCR3 [3] it was 3350 nM.
With `N#Cc1ccc(S(=O)(=O)N(Cc2ccc(-c3nnn[nH]3)c(F)c2)Cc2ccccc2F)cc1` [Example 81, 4-cyano-N-(2-fluorobenzyl)-N-[3-fluoro-4-(2H-tetrazol-5-yl)benzyl]benzene sulfonamide], the IC50 on CXCR3 [1] is 0.193 µM; against CXCR3 [2], 565 nM; on CXCR3 [3], 79 nM.
With `O=S(=O)(c1ccc(Cl)cc1)N(Cc1ccc(-c2nnn[nH]2)cc1)Cc1c(F)cccc1F` [Example 62, 4-chloro-N-(2,6-difluorobenzyl)-N-[4-(2H-tetrazol-5-yl)benzyl]benzene sulfonamide], the IC50 on CXCR3 [1] turned out to be 0.183 µM; against CXCR3 [2], 212 nM; at CXCR3 [3], 44 nM.
Turning to `N#Cc1ccc(S(=O)(=O)N(Cc2ccc(-c3nnn[nH]3)cc2)Cc2ccccn2)cc1` [Example 47, 4-cyano-N-(pyridin-2-ylmethyl)-N-[4-(2H-tetrazol-5-yl)benzyl]benzenesulfonamide], the IC50 at CXCR3 [1] was found to be 0.233 µM; at CXCR3 [3] it was 1160 nM.
On to `COCCCS(=O)(=O)NC(=O)c1ccc(CN(Cc2ccccn2)S(=O)(=O)c2ccc(Cl)cc2)cc1` [Example 54, N-(3-methoxy-propane-1-sulfonyl)-4-{[[(4-chlorophenyl)sulfonyl](pyridin-2-yl-methyl)amino]methyl}benzamide], for which the IC50 at CXCR3 [1] was determined as 3.83 µM; on CXCR3 [3] it was 5600 nM.
The matching figures for `O=S(=O)(c1ccc(Cl)cc1)N(Cc1ccc(-c2nnn[nH]2)cc1)Cc1ccc(F)cc1F` [Example 60, 4-chloro-N-(2,4-difluorobenzyl)-N-[4-(2H-tetrazol-5-yl)benzyl]benzenesulfonamide]: 0.681 µM and 1450 nM.
For `CCOc1ccc(S(=O)(=O)N(Cc2ccc(C(=O)O)cc2)Cc2cccnc2)cc1` [Example 157], in that order: 4.18 µM and 1620 nM.
As to `CCOc1ccc(S(=O)(=O)N(Cc2ccc(C(=O)N[C@H]3[C@@H]4CN(C(=O)OC(C)(C)C)C[C@@H]43)cc2)Cc2ccccn2)cc1` [Example 89, rac-6-(4-{[(4-Ethoxy-benzenesulfonyl)-pyridin-2-ylmethyl-amino]-methyl}-benzoylamino)-3-aza-bicyclo[3.1.0]hexane-3-carboxylic acid tert-butyl ester], the IC50 worked out at 0.01 µM at CXCR3 [1] and 50 nM on CXCR3 [3].
As to `O=C(O)c1ccc(CN(Cc2ccccn2)S(=O)(=O)c2ccc(Cl)cc2)cc1F` [Example 64, 4-{[(4-Chloro-benzenesulfonyl)-pyridin-2-ylmethyl-amino]-methyl}-2-fluoro-benzoic acid], the IC50 at CXCR3 [1] amounted to 1.13 µM; against CXCR3 [2] it was 3150 nM; on CXCR3 [3], 3040 nM.
For `O=S(=O)(c1ccc(Cl)cc1F)N(Cc1ccc(-c2nnn[nH]2)cc1)Cc1ccccn1` [Example 77], in that order: 0.409 µM, 409 nM and 500 nM.
`N#Cc1ccc(S(=O)(=O)N(Cc2ccc(C(=O)NC3(c4cccc(C#N)c4)CC3)cc2)Cc2ccccn2)cc1` [Example 101]: the figures for the IC50 at CXCR3 [1] and at CXCR3 [3] were 0.19 µM and 60 nM, respectively.
Regarding `N#Cc1ccc(S(=O)(=O)N(Cc2ccc(C(=O)NCC3CC3)cc2)Cc2ccccn2)cc1` [Example 43], the IC50 on CXCR3 [1] amounted to 0.36 µM; on CXCR3 [3], 4750 nM.
On to `CCOc1ccc(S(=O)(=O)N(Cc2ccc(C(=O)NC3(c4ccccc4)CC3)cc2)Cc2ccccn2)cc1` [Example 88], for which the values for the IC50 on CXCR3 [1], at CXCR3 [2] and at CXCR3 [3] were 0.01 µM, 30 nM and 10 nM, respectively.
For `N#Cc1ccc(S(=O)(=O)N(Cc2ccc(NC(=O)Cc3cccc(Cl)c3)cc2)Cc2ccccn2)cc1` [Example 161], the IC50 at CXCR3 [1] was 0.06 µM; at CXCR3 [3], 20 nM.
For `O=S(=O)(c1ccc(Cl)cc1)N(Cc1ccccn1)Cc1ccc(-c2nnn[nH]2)cc1F` [Example 57, 4-chloro-N-[2-fluoro-4-(1H-tetrazol-5-yl)benzyl]-N-(pyridin-2 ylmethyl)benzene sulfonamide], the IC50 on CXCR3 [1] was determined as 0.44 µM; at CXCR3 [2], 1780 nM; at CXCR3 [3], 5000 nM.
